pKd, pKi: −log10 of the molar value.

What is called pKi is the Ki on a negative log10 scale, so that one unit is a factor of ten. A low value points to a large Ki. By pKd is commonly meant the negative decadic logarithm of the Kd, by convention in mol/L. Higher therefore signals a low Kd.

In assay [1] the target is Human immunodeficiency virus type 1 reverse transcriptase (Human immunodeficiency virus 1) (UniProt Q72547). Nature of the assay: Binding affinity to HIV1 reverse transcriptase relative to control.
The target in assay [2] is T1, Casein kinase II subunit alpha (Homo sapiens, UniProt P68400). The assay is described as follows: Competitive inhibition of human wild type CK2alpha by Dixon plot analysis.
The next assay deals with Casein kinase II (Homo sapiens, UniProt P19784+P67870+P68400). The assay is described as follows: Inhibition of CK2 (unknown origin). It is filed as protein-complex assay.
The target in assay [3] is T1, Casein kinase II subunit alpha. Nature of the assay: Inhibition of human wild type CK2alpha.
Assay [4] addresses Cellular tumor antigen p53 (Homo sapiens, UniProt P04637, Y220C). Nature of the assay: Stabilization of human p53 Y220C mutant by differential scanning calorimetry. For orientation: In DSC, transitions show as peaks or steps in heat flow.
Assay [5] addresses T1, Casein kinase II subunit alpha. The assay is described as follows: Inhibition of CK2alpha (unknown origin).
Assay [6] addresses T2, Adenosine kinase (Toxoplasma gondii) (UniProt Q9TVW2).
T2 sequence (whole entry): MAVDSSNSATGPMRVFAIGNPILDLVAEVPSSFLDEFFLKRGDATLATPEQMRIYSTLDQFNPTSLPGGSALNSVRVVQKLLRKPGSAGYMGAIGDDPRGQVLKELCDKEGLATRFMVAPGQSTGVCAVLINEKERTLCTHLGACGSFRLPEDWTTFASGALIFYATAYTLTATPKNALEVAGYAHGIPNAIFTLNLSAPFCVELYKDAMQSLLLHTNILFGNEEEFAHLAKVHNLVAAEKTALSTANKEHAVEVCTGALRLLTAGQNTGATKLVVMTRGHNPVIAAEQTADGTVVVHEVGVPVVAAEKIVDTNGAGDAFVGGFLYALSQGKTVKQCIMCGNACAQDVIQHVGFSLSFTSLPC
Nature of the assay: Binding affinity to Toxoplasma gondii adenosine kinase assessed as formation of [14C]AMP from [14C]adenosine and ATP after 10 mins by liquid scintillation counting method relative to control.

T1 sequence (P68400 whole entry): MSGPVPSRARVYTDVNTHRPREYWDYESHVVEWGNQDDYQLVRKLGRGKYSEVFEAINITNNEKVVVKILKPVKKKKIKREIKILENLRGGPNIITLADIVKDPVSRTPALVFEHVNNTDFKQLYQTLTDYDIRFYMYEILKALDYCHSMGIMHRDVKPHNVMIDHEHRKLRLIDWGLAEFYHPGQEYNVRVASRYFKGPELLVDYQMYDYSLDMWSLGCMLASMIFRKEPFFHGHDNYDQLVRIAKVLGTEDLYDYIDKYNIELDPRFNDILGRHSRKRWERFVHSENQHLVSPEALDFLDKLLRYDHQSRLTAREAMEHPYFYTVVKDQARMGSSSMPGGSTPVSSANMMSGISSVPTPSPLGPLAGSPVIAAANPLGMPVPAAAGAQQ
Casein kinase II, sequence (P67870 whole entry): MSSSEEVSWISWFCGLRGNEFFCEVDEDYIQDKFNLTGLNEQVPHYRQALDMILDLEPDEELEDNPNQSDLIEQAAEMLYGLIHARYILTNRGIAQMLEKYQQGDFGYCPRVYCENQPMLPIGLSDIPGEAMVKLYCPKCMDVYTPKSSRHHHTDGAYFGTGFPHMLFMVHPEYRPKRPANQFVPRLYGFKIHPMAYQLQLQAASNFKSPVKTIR
Casein kinase II, sequence (P68400 whole entry): as the sequence (P68400 whole entry) above
Casein kinase II, sequence (P19784 whole entry): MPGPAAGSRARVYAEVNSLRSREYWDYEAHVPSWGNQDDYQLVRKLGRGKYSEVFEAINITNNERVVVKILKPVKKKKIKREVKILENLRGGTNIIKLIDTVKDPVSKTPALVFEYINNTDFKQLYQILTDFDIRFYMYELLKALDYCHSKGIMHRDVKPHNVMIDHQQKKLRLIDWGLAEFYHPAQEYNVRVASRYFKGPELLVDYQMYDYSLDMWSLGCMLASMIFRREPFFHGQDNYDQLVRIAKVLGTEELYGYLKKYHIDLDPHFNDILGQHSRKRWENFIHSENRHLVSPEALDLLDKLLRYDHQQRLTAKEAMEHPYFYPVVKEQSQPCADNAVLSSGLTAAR

In turn, `O=c1[nH]ccc(Oc2ccccc2)c1I` returned a fold change (FC) in assay [1] of 300.
`CS(=O)(=O)c1nc2c(Br)c(Br)c(Br)c(Br)c2[nH]1` showed a pKi in assay [2] of 6.82.
Turning to `FC(F)(F)c1nc2c(I)c(I)c(I)c(I)c2[nH]1`, the pKi at Casein kinase II was 6.43.
Compound `Cc1nc2c(I)c(Cl)c(Cl)c(I)c2[nH]1` gave a pKi in assay [2] of 6.70.
In assay [3], `S=c1[nH]c2c(Br)c(Br)c(Br)c(Br)c2[nH]1` showed a pKi of 7.15.
In turn, `Clc1c(Cl)c(I)c2[nH]cnc2c1I` showed a pKi in assay [2] of 6.52.
In turn, `S=C1NC2C(I)=C(I)C(I)=C(I)C2N1` (stereo not given) showed a negative-log Ki (pKi) at Casein kinase II of 6.70.
The compound `CCn1c2ccccc2c2cc(CNC)ccc21` had a pKd in assay [4] of 3.82.
In the case of `FC(F)(F)c1nc2c(Br)c(Br)c(Br)c(Br)c2[nH]1`, in assay [5], the pKi was 6.40.
Consider `Nc1ncnc2c1c(I)cn2[C@@H]1O[C@H](CO)[C@@H](O)[C@H]1O`, for which the fold change (FC) in assay [6] was 200.

For the origin of these results see ChEMBL document CHEMBL3792305, “Computational Tools To Model Halogen Bonds in Medicinal Chemistry” (J Med Chem, 2016).
